From patent EP4725505A1, “PROPHYLACTIC AND/OR THERAPEUTIC AGENT FOR SKIN DISORDER ASSOCIATED WITH HISTONE DEACETYLASE 4 ABNORMALITY” (National University Corporation Kobe University, priority 2023, dated 2025)

System: HDAC4
Experiment: Improving action on expression of HDAC4 in UV-B-irradiated XP-A-iMCs (RT-PCR)
Type: cell-based, human
Details: XP-A-iMCs irradiated with high-dose (150 J/m^2) UV-B, compound then added to cell medium, cultured for 24 hours, DMSO control
Method: The XP-A-iMCs were seeded into a 60-millimeter dish, and were irradiated with high-dose (150 J/m^2) UV-B when the XP-A-iMCs became about 70% confluent. […] After that, the expression of HDAC4 was recognized by using a RT-PCR method.
The XP-A-iMCs were seeded into a 60-millimeter dish, and were irradiated with high-dose (150 J/m^2) UV-B when the XP-A-iMCs became about 70% confluent.

## CC1=NN(c2ccc(C(=O)O)cc2)C(=O)C1=Cc1ccc(-c2cc(C)c(C)cc2[N+](=O)[O-])o1 [C-646]
  expression of HDAC4: significantly recovered
